From patent publication US8022206B2 (OSI Pharmaceuticals, LLC, priority 2008, dated 2011) come the findings set out here.

In one test the target is RON (human) (Homo sapiens, UniProt Q04912). Description: RON (human) AlphaScreen kinase assay, Km of ATP. The format is biochemical. To be noted: AlphaScreen, Km of ATP; read-out: RON biochemical IC50. The essentials: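 Reaction was started with enzyme and run 30 min at RT. PT66 donor/acceptor beads in an EDTA-containing Tris pH 7.5 buffer were then added, and the signal was read after 1 h.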

Another test deals with MET (human) (Homo sapiens, UniProt P08581). Description: MET (human) AlphaScreen kinase assay, Km of ATP. The test is classed as biochemical. To be noted: AlphaScreen, Km of ATP; read-out: Met biochemical IC50. The essentials:
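Human MET at lot-optimised concentration in 50 mM Tris pH 7.4 buffer with 1 mM DTT, compound at 1% DMSO final; enzyme starts the reaction, 60 min at RT.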

Some results are limits rather than exact numbers.

MET (human), sequence (P08581 25-1390): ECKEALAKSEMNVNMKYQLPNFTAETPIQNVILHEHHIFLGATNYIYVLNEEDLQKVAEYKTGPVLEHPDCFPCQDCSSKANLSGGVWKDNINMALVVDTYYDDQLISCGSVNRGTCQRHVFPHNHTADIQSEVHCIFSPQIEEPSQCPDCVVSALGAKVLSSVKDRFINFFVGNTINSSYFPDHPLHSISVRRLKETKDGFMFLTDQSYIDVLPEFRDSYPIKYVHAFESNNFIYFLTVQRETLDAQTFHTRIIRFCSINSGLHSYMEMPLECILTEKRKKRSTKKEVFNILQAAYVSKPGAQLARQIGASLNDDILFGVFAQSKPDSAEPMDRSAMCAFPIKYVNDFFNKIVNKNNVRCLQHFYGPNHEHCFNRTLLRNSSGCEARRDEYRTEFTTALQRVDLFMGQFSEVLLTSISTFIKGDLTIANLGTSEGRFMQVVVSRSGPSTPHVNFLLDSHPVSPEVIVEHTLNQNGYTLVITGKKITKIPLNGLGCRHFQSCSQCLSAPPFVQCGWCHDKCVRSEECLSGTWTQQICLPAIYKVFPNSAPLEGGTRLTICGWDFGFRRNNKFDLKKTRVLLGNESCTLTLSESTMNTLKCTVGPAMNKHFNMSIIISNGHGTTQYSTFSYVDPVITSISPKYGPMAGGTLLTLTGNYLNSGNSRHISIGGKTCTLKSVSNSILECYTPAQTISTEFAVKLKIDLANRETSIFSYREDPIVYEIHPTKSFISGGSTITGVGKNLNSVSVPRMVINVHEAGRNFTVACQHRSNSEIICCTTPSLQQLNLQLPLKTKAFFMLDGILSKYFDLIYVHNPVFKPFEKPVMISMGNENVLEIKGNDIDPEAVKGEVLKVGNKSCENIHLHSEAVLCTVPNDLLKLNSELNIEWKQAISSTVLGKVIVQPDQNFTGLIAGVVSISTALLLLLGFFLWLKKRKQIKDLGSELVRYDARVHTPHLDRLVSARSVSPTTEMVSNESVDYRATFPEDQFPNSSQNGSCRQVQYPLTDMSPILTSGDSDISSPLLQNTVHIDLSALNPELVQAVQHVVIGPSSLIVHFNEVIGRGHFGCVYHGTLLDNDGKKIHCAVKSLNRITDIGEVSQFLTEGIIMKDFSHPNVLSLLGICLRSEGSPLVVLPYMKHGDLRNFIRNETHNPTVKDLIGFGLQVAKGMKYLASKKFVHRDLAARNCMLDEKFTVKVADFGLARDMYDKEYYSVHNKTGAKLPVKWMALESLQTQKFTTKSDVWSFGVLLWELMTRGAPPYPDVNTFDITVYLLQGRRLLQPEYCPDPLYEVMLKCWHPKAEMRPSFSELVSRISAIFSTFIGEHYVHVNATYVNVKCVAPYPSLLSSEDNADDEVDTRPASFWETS
RON (human), sequence (Q04912 25-1400): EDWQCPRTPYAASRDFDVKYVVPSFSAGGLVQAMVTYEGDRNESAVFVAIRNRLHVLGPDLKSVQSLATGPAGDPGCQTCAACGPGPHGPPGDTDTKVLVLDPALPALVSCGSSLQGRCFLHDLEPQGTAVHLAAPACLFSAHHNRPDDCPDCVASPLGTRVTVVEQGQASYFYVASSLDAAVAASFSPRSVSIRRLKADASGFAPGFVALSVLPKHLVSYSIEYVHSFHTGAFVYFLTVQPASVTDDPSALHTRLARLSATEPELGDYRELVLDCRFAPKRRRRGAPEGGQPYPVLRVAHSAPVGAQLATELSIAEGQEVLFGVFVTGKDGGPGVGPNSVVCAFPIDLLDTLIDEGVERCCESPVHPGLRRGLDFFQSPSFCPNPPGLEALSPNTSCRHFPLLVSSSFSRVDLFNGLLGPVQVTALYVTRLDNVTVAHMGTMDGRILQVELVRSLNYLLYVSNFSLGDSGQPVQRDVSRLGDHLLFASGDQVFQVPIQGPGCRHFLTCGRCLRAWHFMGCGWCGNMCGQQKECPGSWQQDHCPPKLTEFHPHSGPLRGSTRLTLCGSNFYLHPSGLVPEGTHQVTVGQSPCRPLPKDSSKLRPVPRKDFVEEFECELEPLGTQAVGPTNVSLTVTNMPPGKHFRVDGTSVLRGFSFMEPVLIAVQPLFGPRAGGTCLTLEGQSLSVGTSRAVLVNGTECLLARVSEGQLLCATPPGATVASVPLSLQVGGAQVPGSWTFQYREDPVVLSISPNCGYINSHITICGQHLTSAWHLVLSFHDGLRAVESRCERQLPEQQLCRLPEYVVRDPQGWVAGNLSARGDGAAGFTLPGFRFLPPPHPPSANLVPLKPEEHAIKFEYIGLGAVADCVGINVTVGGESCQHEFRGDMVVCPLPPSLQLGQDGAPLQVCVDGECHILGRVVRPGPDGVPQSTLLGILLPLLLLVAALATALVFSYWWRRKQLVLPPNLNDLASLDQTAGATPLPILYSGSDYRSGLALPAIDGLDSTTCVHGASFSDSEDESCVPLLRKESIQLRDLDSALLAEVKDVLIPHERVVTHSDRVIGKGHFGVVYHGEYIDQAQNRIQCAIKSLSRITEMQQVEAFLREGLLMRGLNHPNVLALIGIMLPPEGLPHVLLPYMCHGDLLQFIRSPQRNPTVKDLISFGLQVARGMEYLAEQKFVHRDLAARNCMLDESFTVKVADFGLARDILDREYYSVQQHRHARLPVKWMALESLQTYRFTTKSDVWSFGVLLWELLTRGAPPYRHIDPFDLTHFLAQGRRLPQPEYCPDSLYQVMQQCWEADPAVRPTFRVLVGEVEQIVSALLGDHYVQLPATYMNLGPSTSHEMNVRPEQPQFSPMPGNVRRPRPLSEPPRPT

As for `C[C@@H](Oc1c(N)ncc2c(C3=CC(N)CCC3)coc12)c1c(Cl)ccc(F)c1Cl` (stereo partly drawn) [Example 146, 3-(3-Aminocyclohex-1-enyl)-7-[(R)-1-(2,6-dichloro-3-fluoro-phenyl)ethoxy]furo[3,2-c]pyridin-6-ylamine], the results for the IC50 on RON (human) and on MET (human) were 500 to 5000 nM and < 500 nM, respectively.

With `C[C@@H](Oc1c(N)ncc2c(-c3ccc(N)cc3)coc12)c1c(Cl)ccc(F)c1Cl` [Example 77, 3-(4-Aminophenyl)-7-[(R)-1-(2,6-dichloro-3-fluorophenyl)-ethoxy]furo[3,2-c]pyridin-6-ylamine], the half-inhibitory concentration (IC50) on RON (human) and on MET (human) was 500 to 5000 nM throughout.

With `Cc1cccc(Cl)c1C(C)Oc1c(N)ncc2c(-c3cnn(C4CCNCC4)c3)coc12` (stereo not drawn) [Example 375, 7-[1-(2-Chloro-6-methylphenyl)ethoxy]-3-(1-piperidin-4-yl-1H-pyrazol-4-yl)furo[3,2-c]pyridin-6-ylamine], the IC50 at RON (human) was 500 to 5000 nM; at MET (human), < 500 nM.

Regarding `C[C@@H](Oc1c(N)ncc2c(-c3cnn(C4CCN(C(N)=O)CC4)c3)coc12)c1c(Cl)ccc(F)c1Cl` [Example 272, 4-(4-{6-Amino-7-[(1R)-1-(2,6-dichloro-3-fluorophenyl)ethoxy]furo[3,2-c]pyridin-3-yl}-1H-pyrazol-1-yl)piperidine-1-carboxamide], the half-inhibitory concentration (IC50) at RON (human) and at MET (human) was 500 to 5000 nM throughout.

As to `C[C@@H](Oc1c(N)ncc2c(C3=CCN(C=O)CC3)coc12)c1c(Cl)ccc(F)c1Cl` [Example 10, 4-{6-Amino-7-[(R)-1-(2,6-dichloro-3-fluorophenyl)-ethoxy]-furo[3,2-c]pyridin-3-yl}-3,6-dihydro-2H-pyridine-1-carbaldehyde], the IC50 on RON (human) and at MET (human) was < 500 nM in each case.

Turning to `CC(Cc1ccc(F)cc1)Oc1c(N)ncc2c(-c3cnn(C4CCNCC4)c3)coc12` (stereo not drawn) [Example 425, 7-[2-(4-Fluorophenyl)-1-methylethoxy]-3-(1-piperidin-4-yl-1H-pyrazol-4-yl)furo[3,2-c]pyridin-6-ylamine], the half-maximal inhibitory concentration (IC50) at RON (human) was 500 to 5000 nM; at MET (human), < 500 nM.

For `CC(Cc1ccc(Cl)cc1)Oc1c(N)ncc2c(-c3cnn(C4CCNCC4)c3)coc12` (stereo not drawn) [Example 370, 7-[2-(4-Chlorophenyl)-1-methylethoxy]-3-(1-piperidin-4-yl-1H-pyrazol-4-yl)furo[3,2-c]pyridin-6-ylamine], the concentration for half-maximal inhibition (IC50) on RON (human) was 500 to 5000 nM; on MET (human) it was < 500 nM.

As to `C[C@@H](Oc1c(N)ncc2c(-c3ccc(C(=O)N4CCN(C)CC4)cc3)coc12)c1c(Cl)ccc(F)c1Cl` [Example 75, (4-{6-Amino-7-[(R)-1-(2,6-dichloro-3-fluorophenyl)ethoxy]-furo[3,2-c]pyridin-3-yl}phenyl)-(4-methylpiperazin-1-yl)methanone], the figures for the IC50 on RON (human) and at MET (human) were 500 to 5000 nM and < 500 nM, respectively.

On to `COC(=O)c1ccc(C(C)Oc2c(N)ncc3c(-c4cnn(C5CCNCC5)c4)coc23)cc1` (stereo not drawn) [Example 422, 4-{1-[6-Amino-3-(1-piperidin-4-yl-1H-pyrazol-4-yl)furo[3,2-c]pyridin-7-yloxy]ethyl}benzoic acid methyl ester], for which the IC50 on RON (human) and on MET (human) was 500 to 5000 nM each time.

As for `C[C@@H](Oc1c(N)ncc2c(C3CCN(C(N)=O)CC3)coc12)c1c(Cl)ccc(F)c1Cl` [Example 195, 4-{6-Amino-7-[(R)-1-(2,6-dichloro-3-fluorophenyl)ethoxy]furo[3,2-c]pyridin-3-yl}-piperidine-1-carboxamide], the concentration for half-maximal inhibition (IC50) on RON (human) and at MET (human) was 500 to 5000 nM in each case.

Regarding `C[C@@H](Oc1c(N)ncc2c(-c3csc(C(=O)N4CCC(O)CC4)c3)coc12)c1c(Cl)ccc(F)c1Cl` [Example 313, (4-{6-Amino-7-[(R)-1-(2,6-dichloro-3-fluorophenyl)ethoxy]-furo[3,2-c]pyridin-3-yl}-thiophen-2-yl)-(4-hydroxypiperidin-1-yl)methanone], the half-inhibitory concentration (IC50) at RON (human) and at MET (human) was 500 to 5000 nM in each case.

`C[C@@H](Oc1c(N)ncc2c(C3=CCN(C(=O)N4CCNCC4)CC3)coc12)c1c(Cl)ccc(F)c1Cl` [Example 33, (4-{6-Amino-7-[(R)-1-(2,6-dichloro-3-fluorophenyl)-ethoxy]-furo[3,2-c]pyridin-3-yl}-3,6-dihydro-2H-pyridin-1-yl)-piperazin-1-ylmethanone]: the 50% inhibitory concentration (IC50) on RON (human) and on MET (human) was < 500 nM each time.

For the compound `C[C@@H](Oc1c(N)ncc2c(-c3cccc(C(=O)N(C)C)c3)coc12)c1c(Cl)ccc(F)c1Cl` [Example 73, 3-{6-Amino-7-[(R)-1-(2,6-dichloro-3-fluorophenyl)ethoxy]-furo[3,2-c]pyridin-3-yl}-N,N-dimethylbenzamide], the concentration for half-maximal inhibition (IC50) at RON (human) and on MET (human) was 500 to 5000 nM throughout.

Consider `CCN1CC2CC1CN2C(=O)N1CC=C(c2coc3c(O[C@H](C)c4c(Cl)ccc(F)c4Cl)c(N)ncc23)CC1` (stereo partly drawn) [Example 222, (4-{6-Amino-7-[(R)-1-(2,6-dichloro-3-fluorophenyl)ethoxy]-furo[3,2-c]pyridin-3-yl}-3,6-dihydro-2H-pyridin-1-yl)-(5-ethyl-2,5-diazabicyclo[2.2.1]hept-2-yl)-methanone], for which the IC50 at RON (human) and on MET (human) was < 500 nM throughout.

For the compound `C[C@@H](Oc1c(N)ncc2c(C3=CC4CCC(C3)N4)coc12)c1c(Cl)ccc(F)c1Cl` (stereo partly drawn) [Example 153, 3-(8-Azabicyclo[3.2.1]oct-2-en-3-yl)-7-[(1R)-1-(2,6-dichloro-3-fluorophenyl)ethoxy]furo[3,2-c]pyridin-6-amine], the IC50 is 500 to 5000 nM on RON (human) and < 500 nM at MET (human).

Regarding `C[C@@H](Oc1c(N)ncc2c(-c3ccc(C(=O)N4CCN(CC(=O)N(C)C)CC4)cc3)coc12)c1c(Cl)ccc(F)c1Cl` [Example 300, 2-[4-(4-{6-Amino-7-[(R)-1-(2,6-dichloro-3-fluorophenyl)ethoxy]furo[3,2-c]pyridin-3-yl}benzoyl)piperazin-1-yl]-N,N-dimethylacetamide], the IC50 at RON (human) and at MET (human) was 500 to 5000 nM throughout.

Consider `C[C@H](Oc1c(N)ncc2ccoc12)c1nnc2ccc(-c3cnn(C)c3)nn12` [Example 474, 7-{(1S)-1-[6-(1-methyl-1H-pyrazol-4-yl) [1,2,4]triazolo[4,3-b]pyridazin-3-yl]ethoxy}furo[3,2-c]pyridin-6-amine], for which the IC50 at RON (human) was > 20000 nM; at MET (human), 500 to 5000 nM.

As for `C#CCC(Oc1c(N)ncc2c(C3=CCN(C(N)=O)CC3)coc12)c1c(Cl)ccc(F)c1Cl` (stereo not drawn) [Example 459, 4-(6-Amino-7-{[1-(2,6-dichloro-3-fluorophenyl)but-3-yn-1-yl]oxy}furo[3,2-c]pyridin-3-yl)-3,6-dihydropyridine-1(2H)-carboxamide], the IC50 at RON (human) is 500 to 5000 nM; at MET (human) it was < 500 nM.

As for `CC(Oc1c(N)ncc2c(-c3cnn(C4CCNCC4)c3)coc12)c1cccc(OC(F)(F)F)c1` (stereo not drawn) [Example 352, 3-(1-Piperidin-4-yl-1H-pyrazol-4-yl)-7-[1-(3-trifluoromethoxy-phenyl)ethoxy]furo[3,2-c]pyridin-6-ylamine], the 50% inhibitory concentration (IC50) at RON (human) and on MET (human) was 500 to 5000 nM each time.

In the case of `CC(Cc1cccc(Br)c1)Oc1c(N)ncc2c(-c3cnn(C4CCNCC4)c3)coc12` (stereo not drawn) [Example 439, 7-[2-(3-Bromophenyl)-1-methylethoxy]-3-(1-piperidin-4-yl-1H-pyrazol-4-yl)furo[3,2-c]pyridin-6-ylamine], the IC50 on RON (human) and at MET (human) was < 500 nM in each case.

As for `C[C@@H](Oc1c(N)ncc2c(-c3ccc(C=O)s3)coc12)c1c(Cl)ccc(F)c1Cl` [Example 210, 5-{6-Amino-7-[(R)-1-(2,6-dichloro-3-fluorophenyl)ethoxy]-furo[3,2-c]pyridin-3-yl}-thiophene-2-carbaldehyde], the IC50 at RON (human) and at MET (human) was 500 to 5000 nM in each case.

As for `COC(=O)c1cccc(C(C)Oc2c(N)ncc3c(-c4cnn(C5CCNCC5)c4)coc23)c1` (stereo not drawn) [Example 410, 3-{1-[6-Amino-3-(1-piperidin-4-yl-1H-pyrazol-4-yl)furo[3,2-c]pyridin-7-yloxy]ethyl}benzoic acid methyl ester], the IC50 at RON (human) and at MET (human) was 500 to 5000 nM in each case.

For `COc1cccc(Cl)c1C(C)Oc1c(N)ncc2c(-c3cnn(C4CCNCC4)c3)coc12` (stereo not drawn) [Example 359, 7-[1-(2-Chloro-6-methoxyphenyl)ethoxy]-3-(1-piperidin-4-yl-1H-pyrazol-4-yl)furo[3,2-c]pyridin-6-ylamine], the IC50 at RON (human) and at MET (human) was < 500 nM throughout.

In the case of `CC(Oc1c(N)ncc2c(-c3cnn(C4CCNCC4)c3)coc12)c1cccc(C#N)c1` (stereo not drawn) [Example 393, 3-{1-[6-Amino-3-(1-piperidin-4-yl-1H-pyrazol-4-yl)furo[3,2-c]pyridin-7-yloxy]ethyl}benzonitrile], the figures for the IC50 on RON (human) and at MET (human) were 500 to 5000 nM and < 500 nM, respectively.

For `CC(Oc1c(N)ncc2c(-c3cnn(C4CCNCC4)c3)coc12)c1c(Cl)ccc2ccccc12` (stereo not drawn) [Example 369, 7-[1-(2-Chloronaphthalen-1-yl)ethoxy]-3-(1-piperidin-4-yl-1H-pyrazol-4-yl)furo[3,2-c]pyridin-6-ylamine], the IC50 on RON (human) and on MET (human) was 500 to 5000 nM each time.

Take `COc1cccc(CC(C)Oc2c(N)ncc3c(-c4cnn(C5CCNCC5)c4)coc23)c1` (stereo not drawn) [Example 437, 7-[2-(3-Methoxyphenyl)-1-methylethoxy]-3-(1-piperidin-4-yl-1H-pyrazol-4-yl)furo[3,2-c]pyridin-6-ylamine]: the IC50 on RON (human) and on MET (human) was < 500 nM in each case.

For `CC(Cc1c(Cl)cccc1Cl)Oc1c(N)ncc2c(-c3cnn(C4CCNCC4)c3)coc12` (stereo not drawn) [Example 417, 7-[2-(2,6-Dichlorophenyl)-1-methylethoxy]-3-(1-piperidin-4-yl-1H-pyrazol-4-yl)furo[3,2-c]pyridin-6-ylamine], the IC50 at RON (human) and at MET (human) was 500 to 5000 nM throughout.
